Converted amounts (≈) assume the structure as drawn. Residues, ends and D or L forms follow the SMILES beside them.
Test system: P388
Experiment: Cytotoxicity against mouse P388 cells after 48 hrs by MTT assay
Type: functional, cell-based
Conditions: P388, 48 h

Compound	IC50 [µg/mL]
O=C1CNC(=O)[C@H](Cc2ccc(O)cc2)NC(=O)CNC(=O)[C@@H]2CCCN2C(=O)[C@H](Cc2ccccc2)NC(=O)[C@@H]2CCCN2C(=O)CN1 [YUNNANIN A] (HELM PEPTIDE1{F.P.G.Y.G.G.P}$PEPTIDE1,PEPTIDE1,1:R1-7:R2$$$V2.0)	2.1 (≈ 3.11 µM)
CC[C@H](C)[C@@H]1NC(=O)CNC(=O)[C@@H]2CCCN2C(=O)[C@H](CO)NC(=O)[C@H](Cc2ccc(O)cc2)NC(=O)[C@H](Cc2ccccc2)NC(=O)CNC1=O [YUNNANIN C] (HELM PEPTIDE1{F.Y.S.P.G.I.G}$PEPTIDE1,PEPTIDE1,1:R1-7:R2$$$V2.0)	2.2 (≈ 3.05 µM)

Source: ChEMBL document CHEMBL1158211, “Cyclic peptides from higher plants. 24.1 yunnanin C, a novel cyclic heptapeptide from Stellaria yunnanensis” (J Nat Prod, 1996)
